Measurements taken from US20050014144A1, “Methods” (priority 2001, published 2005).

Test system: P. aphanidermatum cytochrome b gene F129 and L129 alleles
Experiment: ARMS/Scorpion F129L SNP detection assay (Ct of allele selective primers on plasmid DNA templates)
Parameters: species or system Pythium aphanidermatum
Settings: for ΔCt: between C and A plasmid template; for ΔCt / A Ct / C Ct: 2×10^6 molecules/ul; for A Ct: mutant (L129) plasmid template; for NTC amplification: no template (water only) control; for C Ct: wild type (F129) plasmid template; for Observed A:C ratio: plasmid templates 2×10^6 molecules/ul
Procedure: In all ARMS/Scorpion™ F129L SNP detection assays AmpliTaq Gold enzyme (Applied Biosystems) was included in the reaction mixes at 1 unit/25 μl reaction. The reaction mix also contained 1× buffer (10 mM Tris-HCl (pH8.3), 50 mM KCl, 3.5 mM MgCl2, 0.01% gelatine) and 100 μM dNTPs (Amersham Pharmacia Biotech). Amplifications were performed in an ABI Prism 7700 instrument for continuous fluorescence monitoring. A preliminary cycle of 95° C. for 10 minutes was performed followed by 50 cycles of 95° C. for 15 sec and 60° C. for 45 sec. Fluorescence was monitored during the annealing/extension stage throughout all cycles.
Primers were first validated for use in such analyses by using plasmid DNA, at various concentrations, as template. This was performed in order to check the specificity and sensitivity of the primer designs. Partial wild type cytochrome b gene sequence and the corresponding tract containing the F129L mutation amplified from two P. aphanidermatum isolates were cloned into the TA pCR2.1 vector (Invitrogen) as described previously in example 2. 150 ul of the bacterial culture, from the 10 transformants from each cloning event picked for Wizard Plus plasmid DNA Preparations (Promega) (see example 2), was saved prior to carrying out these preparations and stored at 4° C. Following sequence analysis wild type and mutant plasmid DNA samples that contained no sequence differences from the consensus sequence were noted. The bacterial culture from which these wild type and mutant plasmid DNA sequences originated was picked for plasmid DNA maxipreps (Qiagen) following the manufacturers protocol. The resulting plasmid DNA was quantified and diluted to a concentration of 1 ug/ul (2×10^11 molecules/ul) using sterile double distilled H2O.
The wild type and mutant plasmid DNA cassettes were diluted further to a concentration of 10 pg/ul (or 2×10^6 molecules/ul) in double distilled H2O and used as template to validate the specificity of the ARMS primers. Each ARMS primer was tested on wild type and mutant template as well as a no template (water only) control, under the PCR conditions described above. The Pt129-1 and Pt129-4 primers were preferred to the Pt129-2 and Pt129-3 and the Pt129-5 and Pt129-6 primers as duplicate PCRs gave more consistent results and were more specific. Wild type ARMS primer Pt129-1 gave a window of 15.27 cycles before amplification occurred on the inappropriate (mutant) template (FIG. 7). Mutant ARMS primer Pt129-4 gave a window of 16.96 cycles before amplification occurred on the inappropriate (wild type) template (FIG. 8).
Following the selection of a suitable ARMS primer for the detection of the point mutation the assay was validated further, so that its sensitivity of detection was fully understood before it was used to test biological samples for the presence of the L129 mutation. The first validation step was to establish if the window of specificity varied for the chosen ARMS primers over a 6 orders of magnitude range of wild type and mutant template DNA concentration. The wild type and mutant plasmid DNA cassettes described previously were diluted in Bovine Serum Albumin (BSA) (Fraction V Powder minimum 96%, Sigma A9647) at a concentration of 1 mg/ml through a 10 fold dilution series. The template concentrations covered the range 2×10^8 molecules/ul to 2×10^2 molecules/ul. Both plasmid DNA cassettes and a no template (water only) control were tested in the ARMS/Scorpion assay using primers Pt129-1, Pt129-4 and Pt129-S, as described above.
In all ARMS/Scorpion™ F129L SNP detection assays AmpliTaq Gold enzyme (Perkin-Elmer/ABI) was included in the reaction mixes at 1 unit/25 μl reaction. The reaction mix also contained 1× buffer (10 mM Tris-HCl (pH8.3), 50 mM KCl, 3.5 mM MgCl2, 0.01% gelatine) and 100 μM dNTPs (Amersham Pharmacia Biotech). Amplifications were performed in an ABI Prism 7700 instrument for continuous fluorescence monitoring. […]

Substance	ΔCt	A Ct	NTC amplification	C Ct	Observed A:C ratio
Pt129-C5 (DNA ACCCCAAGGTAATACATAACCCCTG; chemistry not given here)	22.26	42.36	none	20.1	
Pt129-A15 (DNA ACCCCAAGGTAATACATAACGCGTT; chemistry not given here)		no C	none	30.05	all A
Pt129-A13 (DNA ACCCCAAGGTAATACATAACTCGTT; chemistry not given here)	18.8	41.99	none	23.19	
Pt129-A7 (DNA ACCCCAAGGTAATACATAACTCACT; chemistry not given here)	14.05	36.33	none	22.28	
Pt129-C2 (DNA ACCCCAAGGTAATACATAACCCACG; chemistry not given here)	23.15	43.57	none	20.42	
Pt129-A9 (DNA ACCCCAAGGTAATACATAACGCACT; chemistry not given here)	14.96	37.1	none	22.14	
Pt129-A2 (DNA ACCCCAAGGTAATACATAACCCACT; chemistry not given here)	13.14	20.87	none	34.01	
Pt129-A10 (DNA ACCCCAAGGTAATACATAACTCCTT; chemistry not given here)	4.2	31.4	none	27.2	
Pt129-A6 (DNA ACCCCAAGGTAATACATAACCCGTT; chemistry not given here)	12.17	21.3	none	33.47	
Pt129-A4 (DNA ACCCCAAGGTAATACATAACCCTTT; chemistry not given here)	14.38	24.42	none	38.8	
Pt129-A8 (DNA ACCCCAAGGTAATACATAACACACT; chemistry not given here)	13.76	35.87	none	22.11	
Pt129-A1 (DNA ACCCCAAGGTAATACATAACCCAAT; chemistry not given here)	5.79	26.54	none	32.33	
Pt129-C1 (DNA ACCCCAAGGTAATACATAACCCAAG; chemistry not given here)	16.81	42.6	none	25.79	
Pt129-A12 (DNA ACCCCAAGGTAATACATAACGCCTT; chemistry not given here)	2.7	30.16	none	27.46	
Pt129-C3 (DNA ACCCCAAGGTAATACATAACCCAGG; chemistry not given here)		no A	none	29.7	all C
Pt129-C6 (DNA ACCCCAAGGTAATACATAACCCGTG; chemistry not given here)	24.54	44.17	none	19.63	
Pt129-A5 (DNA ACCCCAAGGTAATACATAACCCCTT; chemistry not given here)	11.09	21.42	none	32.51	
Pt129-A11 (DNA ACCCCAAGGTAATACATAACACCTT; chemistry not given here)	6.4	31.25	none	24.85	
Pt129-A3 (DNA ACCCCAAGGTAATACATAACCCAGT; chemistry not given here)	8.91	31.29	none	40.2	
Pt129-S6 (DNA TTGACCCCAAGGTAATACATAACTC; chemistry not given here)		20.84	none	20.43	
